Test results reported in patent US20100210682A1, “Repeated Dosing of TRPV1 Antagonists” (ABBOTT LABORATORIES, priority 2009, published 2010).
Converted amounts (≈) assume the structure as drawn. Marks after values point to notes of the source that are not given here.

Legend:
TRPV1 receptor = TRPV1 receptor (Homo sapiens, UniProt Q8NER1); experiment: Block of TRPV1 receptor activation by capsaicin in vitro; type: biochemical
[1] = system: MIA-induced osteoarthritic rats; experiment: Osteoarthritic pain model in rats (MIA), weight bearing difference; type: in vivo; conditions: po, 96 h; rat, p.o., acute dosing, 4 days following MIA injection; read-out: ED50, reversal of difference in weight bearing
Procedure: Unilateral knee joint osteoarthritis was induced in the rats by a single intraarticular (i.a.) injection of sodium monoiodoacetate (MIA) (Sigma, St. Louis, Mo.) (3 mg in 0.05 mL sterile isotonic saline) into the joint cavity using a 26 G needle under light (2-4%) halothane (Halocarbon Laboratories, River Edge, N.J.) anesthesia [Bove S E, Calcaterra S L, Brooker R M, Huber C M, Guzman R E, Juneau P L, et al. Weight bearing as a measure of disease progression and efficacy of anti-inflammatory compounds in a model of monosodium iodoacetate-induced osteoarthritis. Osteoarthritis Cartilage 2003; 11:821-30]. […]
MIA-induced nociception can be assessed by measuring differences in weight bearing (WBD) or decrease in grip force (GF) several days to weeks following MIA injection [Bove S E, Calcaterra S L, Brooker R M, Huber C M, Guzman R E, Juneau P L, et al. Weight bearing as a measure of disease progression and efficacy of anti-inflammatory compounds in a model of monosodium iodoacetate-induced osteoarthritis. […]
Differences in weight bearing on the injured vs uninjured hind limb were assessed by placing the animals in an Incapacitance Tester (Linton, Stoelting, Wood Dale, Ill.). […] The animals were allowed to acclimate for approximately 30 s before weight-bearing readings (measured in grams) were recorded. […]

[2] = system: inflammatory thermal hyperalgesia induced by intraplantar administration of CFA; experiment: Inflammatory pain model in rats (CFA, thermal hyperalgesia); type: in vivo; conditions: po; rat, p.o., acute dosing; read-out: ED50, reversal of inflammatory thermal hyperalgesia induced by CFA
Procedure: The response to acute thermal stimulation was determined using a commercially available paw thermal stimulator (UARDG, University of California, San Diego, Calif.). Rats were placed individually in Plexiglass cubicles mounted on a glass surface maintained at 30° C., and allowed a 30 min habituation period. A thermal stimulus, in the form of radiant heat emitted from a focused projection bulb, was then applied to the plantar surface of each hind paw. In each test session, each rat was tested in three sequential trials at approximately 5 min intervals. Paw withdrawal latencies (PWLs) were calculated as the mean of the two shortest latencies. An assay cut-off was set at 20.5 s. Unilateral inflammation was induced by injecting 150 μL of a 50% solution of complete Freund's adjuvant (CFA) (Sigma, St. Louis, Mo.) in physiological saline into the plantar surface of the right hind paw of the rat. The hyperalgesia to thermal stimulation was determined 2 days following CFA injection using the same apparatus as described above for the noxious acute thermal assay. Compound A was dissolved in 100% polyethylene glycol (PEG 400) for oral administration in a 2 mL/kg injection volume. Compounds B, C, and D were dissolved in 10% ethanol, 20% Tween 80 and 70% polyethylene glycol-400 for oral administration in a 2 mL/kg injection volume. […]

[3] = system: MIA-induced osteoarthritic rats; experiment: Osteoarthritic pain model in rats (MIA), hind limb grip force; type: in vivo, rat; conditions: for ED50: po, p.o., acute dosing
Procedure: Unilateral knee joint osteoarthritis was induced in the rats by a single intraarticular (i.a.) injection of sodium monoiodoacetate (MIA) (Sigma, St. Louis, Mo.) (3 mg in 0.05 mL sterile isotonic saline) into the joint cavity using a 26 G needle under light (2-4%) halothane (Halocarbon Laboratories, River Edge, N.J.) anesthesia [Bove S E, Calcaterra S L, Brooker R M, Huber C M, Guzman R E, Juneau P L, et al. Weight bearing as a measure of disease progression and efficacy of anti-inflammatory compounds in a model of monosodium iodoacetate-induced osteoarthritis. Osteoarthritis Cartilage 2003; 11:821-30]. Following injection, the animals were allowed to recover from the effects of anesthesia (usually 5-10 min) before returning them to their home cages.
MIA-induced nociception can be assessed by measuring differences in weight bearing (WBD) or decrease in grip force (GF) several days to weeks following MIA injection [Bove S E, Calcaterra S L, Brooker R M, Huber C M, Guzman R E, Juneau P L, et al. Weight bearing as a measure of disease progression and efficacy of anti-inflammatory compounds in a model of monosodium iodoacetate-induced osteoarthritis. Osteoarthritis Cartilage 2003; 11:821-30; Fernihough J, Gentry C, Malcangio M, Fox A, Rediske J, Pellas T, et al. Pain related behaviour in two models of osteoarthritis in the rat knee. Pain 2004; 112:83-93].
In addition to weight-bearing differences, grip strength was also assessed in osteoarthritic rats approximately 21 days after MIA injection. Measurements of peak hind limb grip force were conducted by recording the maximum compressive force exerted on the hind limb strain gauge setup, in a commercially available grip force measurement system (Columbus Instruments, Columbus, Ohio). During testing, each rat was gently restrained by grasping around its rib cage and then allowed to grasp the wire mesh frame (10-12 cm^2) attached to the strain gauge. The experimenter then moved the animal in a rostral-to-caudal direction until the grip was broken. Each rat was sequentially tested twice at an approximately 2 min interval to obtain a raw mean grip force […]. These raw mean grip force data were in turn converted to a maximum hind limb compressive force (CFmax) (gram force)/kg body weight for each animal. A group of age-matched naïve animals was added to each experiment and the data obtained from the different dose groups for the compound being tested were compared to the naïve group.
Compound A was dissolved in 100% polyethylene glycol (PEG 400) for oral administration in a 2 mL/kg injection volume. Compounds B, C, and D were dissolved in 10% ethanol, 20% Tween 80 and 70% polyethylene glycol-400 for oral administration in a 2 mL/kg injection volume. All compounds were dosed orally (p.o.) 60 minutes before behavioral testing.
(§1) In the osteoarthritic pain model, animals were dosed twice-daily for 12 days using a dose that was non-efficacious following a single administration (e.g. 3 μmol/kg p.o. for Compound A). The animals were tested 1 hour after acute dosing (p.o.) and on day 12, 1 hour after oral dosing with either vehicle or the test compound.
The analgesic responses were shown as % effect relative to the healthy, untreated rats (naïve group).

[4] = system: capsaicin-induced flinching behaviors; experiment: Capsaicin-induced acute pain (flinching) in rats; type: in vivo; conditions: rat, acute dosing, 2.5 μg capsaicin into hind paw
Procedure: Rats were placed in individual observation cages. Following an acclimation period of 30 min, the test compound was administered. Two hours later, 2.5 μg of capsaicin in a 10 μL solution of 10% ethanol/90% hydroxypropyl-b-cyclodextrin was injected subcutaneously into the dorsal aspect of the right hind paw. The observation cage was then suspended above mirrors in order to facilitate observation of the rat. […] The number of flinching behaviors of the injured paw was recorded during the 5 minutes observation period. Compound A was dissolved in 100% polyethylene glycol (PEG 400) for oral administration in a 2 mL/kg injection volume. Compounds B, C, and D were dissolved in 10% ethanol, 20% Tween 80 and 70% polyethylene glycol-400 for oral administration in a 2 mL/kg injection volume. All compounds were dosed orally (p.o.) 60 minutes before behavioral testing.

[5] = Plasma levels in osteoarthritic rats after acute and repeated dosing; type: in vivo, rat; conditions: derived from modeling of PK/PD data from acute and chronic dosing studies
Procedure: as §1

Chain of TRPV1 receptor (Q8NER1 whole entry): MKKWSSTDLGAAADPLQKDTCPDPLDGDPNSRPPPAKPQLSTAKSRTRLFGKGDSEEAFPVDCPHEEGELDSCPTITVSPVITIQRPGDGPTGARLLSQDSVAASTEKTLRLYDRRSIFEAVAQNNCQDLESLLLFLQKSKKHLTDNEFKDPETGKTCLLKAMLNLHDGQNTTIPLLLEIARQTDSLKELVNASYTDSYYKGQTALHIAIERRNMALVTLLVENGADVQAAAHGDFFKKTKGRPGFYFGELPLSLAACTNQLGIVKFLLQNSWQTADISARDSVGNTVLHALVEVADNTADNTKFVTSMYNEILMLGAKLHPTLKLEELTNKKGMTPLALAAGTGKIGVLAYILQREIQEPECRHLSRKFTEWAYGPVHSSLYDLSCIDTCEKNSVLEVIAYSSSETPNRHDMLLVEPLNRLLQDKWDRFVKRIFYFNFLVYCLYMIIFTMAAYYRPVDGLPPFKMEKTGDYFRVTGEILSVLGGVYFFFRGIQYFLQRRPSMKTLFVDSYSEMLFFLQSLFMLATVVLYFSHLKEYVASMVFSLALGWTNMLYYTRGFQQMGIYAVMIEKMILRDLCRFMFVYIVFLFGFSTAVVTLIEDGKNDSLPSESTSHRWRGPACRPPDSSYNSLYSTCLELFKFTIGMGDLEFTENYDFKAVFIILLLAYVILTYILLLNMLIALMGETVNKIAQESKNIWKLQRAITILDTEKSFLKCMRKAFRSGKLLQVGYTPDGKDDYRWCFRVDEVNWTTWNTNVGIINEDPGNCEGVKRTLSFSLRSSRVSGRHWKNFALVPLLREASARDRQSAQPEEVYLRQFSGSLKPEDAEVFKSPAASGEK

- ability to block TRPV1 receptor activation by capsaicin in vitro (TRPV1 receptor): potent
- Plasma Levels, Chronic ([5]; 3 μmol/kg BID 12 days): 17** at 3 μmol/kg ng/mL
- EC50 ([5]; Rattus norvegicus, osteoarthritic rats): 0.085 µg/mL (≈ 0.244 µM)
Compound: CC(C)(C)c1ccc2c(c1)CC[C@H]2NC(=O)Nc1cccc2[nH]ncc12 [Compound A, N-[(1R)-5-tert-butyl-2,3-dihydro-1H-inden-1-yl]-N′-1H-indazol-4-ylurea]
- ED50 [1]: 30 µmol/kg
- ED50 [2]: 10 µmol/kg
- ED50 ([3]; Rattus norvegicus, grip force, MIA-induced osteoarthritic rats, read-out: Acute ED50 (μmol/kg; 95% Cl)): 8 µmol/kg
- % Efficacy at Reduced Dose, Chronic (BID, 12 days) ([3]; grip force, 3 μmol/kg p.o. BID 12 days, relative to naïve group): 62%
- % Efficacy at Reduced Dose, Acute ([3]; grip force, 3 μmol/kg p.o., 1 hour after acute dosing, relative to naïve group): 20%
- analgesic effects following repeated dosing vs acute dosing ([3]; grip force, BID 12 days, reduced dose): significantly increased
- ED50 ([3]; 480 h, rat, 20 days following MIA injection, read-out: ED50, reversal of decrease in grip force): 10 µmol/kg
- capsaicin-induced flinching behaviors [4]: dose-dependently prevented
